Source: the supplement of paper PMC11208160

test: recombinant UMI read abundance after kanamycin selection (control-corrected) (log10(CPM+1)); higher = more efficient recombination; extreme values may be limits of the assay; sequences stand for … in AGTGCAGAGAAAATCGGCCAGTTTTCTCTGCCTGCAGTCCGCATGCCGTGGGACCCCTTGGGTTCTAACCTGTTGCCTAGATTTATGCAGCGGACTGCCTTTCTCCCAAAGTGATAAACCGG…AGGTTGGTTTCACT; site = the 11-nt donor
Summary of the method: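 Under IPTG (0.07 mM) plus kanamycin, or without selection, Escherichia coli carrying a UMI-tagged donor and donor-binding-loop pair library and a target plasmid for the IS621 bridge recombinase were plated in two replicates. Recombinant UMIs were PCR-amplified across the donor–target junction and sequenced. Counts were converted to CPM, averaged over replicates, scaled by control-derived factors and reported as log10(CPM+1).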
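Also: IS621 bridge recombinase in Escherichia coli cells against a fixed T5 target plasmid.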

| Sequence | recombinant UMI read abundance (log10) |
| --- | --- |
| AGAAAGGCATGGACCGGTTTTCCCGGTAATCCGTATTTGCT (site AGAAAGGCTAC) | 0.019 |
| TGCAGGGCATGGACCGGTTTTCCCGGTAATCCGTATTTGCC (site TGCAGGGCTGG) | 1.82 |
| TCATACCCATGGACCGGTTTTCCCGGTAATCCGTATTTGCA (site TCATACACTTG) | 0 |
| ACTCGAACATGGACCGGTTTTCCCGGTAATCCGTATTTGTC (site ACGCGAACTGA) | 1.26 |
| CGATCCTCATGGACCGGTTTTCCCGGTAATCCGTATTTGCT (site CGATCATCTAG) | 0 |
| AGTCCTTCATGGACCGGTTTTCCCGGTAATCCGTATTTGCA (site AGTCCTTCTTG) | 1.24 |
| TATTTGGCATGGACCGGTTTTCCCGGTAATCCGTATTTGTG (site TATTTGTCTCA) | 0.0606 |
| TCATACTCATGGACCGGTTTTCCCGGTAATCCGTATTTGCA (site TCTTACTCTTG) | 2.13 |
| TCATACTCATGGACCGGTTTTCCCGGTAATCCGTATTTGCA (site TCATCCTCTTG) | 0.111 |
| CTGGAAACATGGACCGGTTTTCCCGGTAATCCGTATTTGGA (site CTGGAAACTTA) | 0.993 |
| ACCTCGGCATGGACCGGTTTTCCCGGTAATCCGTATTTGTT (site ACCTCGGCTAA) | 0.681 |
| GGCAAACCATGGACCGGTTTTCCCGGTAATCCGTATTTGGT (site GGCAAACCTAC) | 0 |
| TCAGACACATGGACCGGTTTTCCCGGTAATCCGTATTTGCG (site TCAGAAACTCG) | 0 |
| AGTGAGACATGGACCGGTTTTCCCGGTAATCCGTATTTGGT (site ATTGAGACTAC) | 0.546 |
| GCGAAGCCATGGACCGGTTTTCCCGGTAATCCGTATTTGTT (site GCGAAGCCTAA) | 1.14 |
| ACTCCACCATGGACCGGTTTTCCCGGTAATCCGTATTTGTG (site ACTCCACCTCA) | 0.0232 |
| CGTGGAACATGGACCGGTTTTCCCGGTAATCCGTATTTGCT (site CGTGGAACTAT) | 0.45 |
| AAACGGACATGGACCGGTTTTCCCGGTAATCCGTATTTGTA (site AAACGGACTTA) | 1.84 |
| ACTAGAACATGGACCGGTTTTCCCGGTAATCCGTATTTGAG (site ACGAGAACTCT) | 0.424 |

| Sequence | recombinant UMI read abundance (log10) |
| --- | --- |
| CAGGAACCATGGACCGGTTTTCCCGGTAATCCGTATTTGAT (site CGGGAACCTAT) | 0 |
| AGGGAGACATGGACCGGTTTTCCCGGTAATCCGTATTTGCA (site AGGAAGACTTG) | 0.796 |
| AGCAAGGCATGGACCGGTTTTCCCGGTAATCCGTATTTGCT (site AGTAAGGCTAG) | 0.238 |
| GATTCCCCATGGACCGGTTTTCCCGGTAATCCGTATTTGGG (site TTAGGTTCTGA) | 0 |
| TTAGCTTCATGGACCGGTTTTCCCGGTAATCCGTATTTGTG (site TTAGCTACTCA) | 0.0149 |
| TAGGAATCATGGACCGGTTTTCCCGGTAATCCGTATTTGCG (site TAGGAGTCTCG) | 1.94 |
| GGATAGACATGGACCGGTTTTCCCGGTAATCCGTATTTGCC (site GGATTGACTGG) | 0 |
| GAATGGTCATGGACCGGTTTTCCCGGTAATCCGTATTTGCA (site GAATGGCCTTG) | 0 |
| TGAGGTCCATGGACCGGTTTTCCCGGTAATCCGTATTTGGA (site TGAGGTCCTTC) | 0.172 |
| CCAGCAGCATGGACCGGTTTTCCCGGTAATCCGTATTTGCT (site CAAGCAGCTAG) | 0 |
| AGAGAGGCATGGACCGGTTTTCCCGGTAATCCGTATTTGCT (site AGAAAGGCTAG) | 2.43 |
| CTGCTCTCATGGACCGGTTTTCCCGGTAATCCGTATTTGTA (site CTGCTCTCTTA) | 2.98 |
| ACATGTACATGGACCGGTTTTCCCGGTAATCCGTATTTGAC (site ACATGTACTGT) | 1.76 |
| CGTTGGACATGGACCGGTTTTCCCGGTAATCCGTATTTGAG (site CGTTAGACTCT) | 0.878 |
| GACAATCCATGGACCGGTTTTCCCGGTAATCCGTATTTGGT (site GACAATCCTAC) | 0.0195 |
| TCAGTAGCATGGACCGGTTTTCCCGGTAATCCGTATTTGCA (site ACAGTATCTTG) | 2.25 |
| ATGTAGGCATGGACCGGTTTTCCCGGTAATCCGTATTTGGC (site ATGGAGGCTGC) | 0 |
| TCATACTCATGGACCGGTTTTCCCGGTAATCCGTATTTGCA (site TCATATTCTTG) | 0 |
| ACATCAACATGGACCGGTTTTCCCGGTAATCCGTATTTGTG (site ACATCTACTCA) | 0.206 |

| Sequence | recombinant UMI read abundance (log10) |
| --- | --- |
| AGATCAGCATGGACCGGTTTTCCCGGTAATCCGTATTTGGG (site AGGTCAGCTCC) | 0.014 |
| CCCATCTCATGGACCGGTTTTCCCGGTAATCCGTATTTGTC (site CCCATATCTGA) | 0 |
| GACCTTGCATGGACCGGTTTTCCCGGTAATCCGTATTTGCA (site GACCTTGCTTG) | 0 |
| CCCCACGCATGGACCGGTTTTCCCGGTAATCCGTATTTGGC (site CCCCACGCTGC) | 0.767 |
| CGAGAGTCATGGACCGGTTTTCCCGGTAATCCGTATTTGCC (site CGGGAGTCTGG) | 1.46 |
| GTAGTTTCATGGACCGGTTTTCCCGGTAATCCGTATTTGTA (site GTAGTTTCTTA) | 2.61 |
| CGATTATCATGGACCGGTTTTCCCGGTAATCCGTATTTGTT (site CGATCATCTAG) | 0 |
| ACACATCCATGGACCGGTTTTCCCGGTAATCCGTATTTGAC (site CCACATCCTGT) | 0.581 |
| ACACCCTCATGGACCGGTTTTCCCGGTAATCCGTATTTGAC (site ACACCCTCTGT) | 3.42 |
| CTCGGCCCATGGACCGGTTTTCCCGGTAATCCGTATTTGTT (site CGCGGCCCTAA) | 0.0316 |
| CGAAATCCATGGACCGGTTTTCCCGGTAATCCGTATTTGTT (site CGTAATCCTAA) | 0 |
| TCTGGTCCATGGACCGGTTTTCCCGGTAATCCGTATTTGAG (site TCTGGTCCTCT) | 0.00736 |
| ACCAGAACATGGACCGGTTTTCCCGGTAATCCGTATTTGAA (site ACCAGAACTTT) | 1.72 |
| CTTTAAACATGGACCGGTTTTCCCGGTAATCCGTATTTGTC (site CTTTAAACTGA) | 0 |
| TCCGAGACATGGACCGGTTTTCCCGGTAATCCGTATTTGCG (site TCTGAGACTCG) | 0.0115 |
| TAGCCAGCATGGACCGGTTTTCCCGGTAATCCGTATTTGAA (site TAGCTAGCTTT) | 0.00915 |
| AGAGAGGCATGGACCGGTTTTCCCGGTAATCCGTATTTGCT (site AGAGAGGCTAG) | 2.19 |
| CACCGTACATGGACCGGTTTTCCCGGTAATCCGTATTTGCT (site CACCGTACTAG) | 2.18 |
| TTTCCGGCATGGACCGGTTTTCCCGGTAATCCGTATTTGTA (site TTTCCGGCTTA) | 0.262 |
